Entries after “also recorded” stand apart in the source; their conditions may differ.

The text below walks through data of publication PMC10318527, “Utilization of dietary mixed-linkage β-glucans by the Firmicute Blautia producta” (The Journal of Biological Chemistry, 2023).

For one assay, the system named is BPGH16 mutant H398A. Description: Kinetics of BPGH16 mutant H398A (DNS assay). It is filed as biochemical, Blautia producta ATCC 27340. How it is done: (§1) The residues R331, L358, E379, D381, E384, W362, and H398 of BpGH16MLG were mutated to Ala by the Q5Site-Directed Mutagenesis Kit (New England Biolabs, UK, catalogue no. E0554S). Wild-type plasmid BpGH16-pET28a(+) was used as a template, and mutagenic forward and reverse primers were developed using NEBaseChanger with subtle modifications (Table S4). A 25 μl PCR cocktail was prepared for mutating each residue. The final concentration of Q5 Hot Start High-Fidelity 2X Master Mix was 1X, each primer was at 0.5 μM, the amount of used template was 20 ng, and the rest of the volume was made up of nuclease-free water. PCR was executed using the following conditions-initial denaturation was performed at 98 °C for 1 min, for each cycle-denaturation, annealing, and extension (72 °C) were set for 10 s, 20 s, and 7 min, respectively. […] The mutant protein was then expressed as per the protocol mentioned earlier, and kinetics were performed with barley β-glucan.
(§2) Reactions were performed in 100 μl volume mixture using recombinant enzyme (final concentration at 0.1 mg/ml) in 50 mM sodium phosphate buffer (pH 5.7) at 37 °C for 1 h of incubation. […] Enzymatic assays were determined with 3,5- dinitrosalicylic acid (DNS) assay ([85]). […] Consequently, recorded the developed color spectrophotometrically at 575 nm ([85]). […]

The test system of a further assay is BPGH16 mutant L358A. Description: Kinetics of BPGH16 mutant L358A (DNS assay). Type of assay: biochemical, Blautia producta ATCC 27340. How it is done:
as §1, §2

For a further assay, the system named is BPGH16 mutant R331A. In words: Kinetics of BPGH16 mutant R331A (DNS assay). Type of assay: biochemical, Blautia producta ATCC 27340. How it is done:
The residues R331, L358, E379, D381, E384, W362, and H398 of BpGH16MLG were mutated to Ala by the Q5Site-Directed Mutagenesis Kit (New England Biolabs, UK, catalogue no. E0554S). Wild-type plasmid BpGH16-pET28a(+) was used as a template, and mutagenic forward and reverse primers were developed using NEBaseChanger with subtle modifications (Table S4). A 25 μl PCR cocktail was prepared for mutating each residue. The final concentration of Q5 Hot Start High-Fidelity 2X Master Mix was 1X, each primer was at 0.5 μM, the amount of used template was 20 ng, and the rest of the volume was made up of nuclease-free water. PCR was executed using the following conditions-initial denaturation was performed at 98 °C for 1 min, for each cycle-denaturation, annealing, and extension (72 °C) were set for 10 s, 20 s, and 7 min, respectively. A total of 25 cycles were performed, and the final extension was for 5 min 5 μl PCR products were loaded on 0.8% agarose gel to conform to the amplification of the mutagenic gene. Ligation of PCR products and cleavage of methylated template DNA was then performed using 5 μl KLD reaction buffer and 1 μl KLD enzyme cocktail at RT for 1 h. It was then transformed into E. coli TOP-10 cells and plasmids were isolated. The obtained plasmids were sequenced to confirm the mutation at the desired location. Once mutation was confirmed in a gene, the mutant plasmid was transformed into Rosetta (DE3) cells for protein expression. The mutant protein was then expressed as per the protocol mentioned earlier, and kinetics were performed with barley β-glucan.
Reactions were performed in 100 μl volume mixture using recombinant enzyme (final concentration at 0.1 mg/ml) in 50 mM sodium phosphate buffer (pH 5.7) at 37 °C for 1 h of incubation. Then, reactions were terminated by boiling for 5 min. Enzymatic assays were determined with 3,5- dinitrosalicylic acid (DNS) assay ([85]). In brief, 0.05 g Na2SO3 and 1 g DNS were mixed in a 50 ml water-containing reagent bottle and stirred about 6 h using a magnetic stirrer. After that, 200 μl phenol was added and made up to 100 ml. A working solution of DNS was prepared by adding 50 μl glucose (20% (w/v) stock) in prepared 100 ml of reagent mixtures and immediately used for experiments without adding NaOH. 80 μl DNS reagent was added to the reaction mixtures and incubated at 100 °C for 10 min, followed by ice-cooling for 10 min. Consequently, recorded the developed color spectrophotometrically at 575 nm ([85]). A standard curve generated by different concentrations of maltose was used for determining released reducing sugars in each case.

The subject of the next assay is R. faecis. In words: Growth of R. faecis on barley β-glucan. It is filed as cell-based, Roseburia faecis. The following applies: minimal medium with 1% barley β-glucan, no BpGH16MLG. The method, then: […] JCM 31261, B. pseudocatenulatum JCM 1200^T, B. adolescentis JCM 1275^T, B. coccoides JCM 1395^T, B. bifidum JCM 1254, and A. caccae JCM 13470^T were used for bacterial mono-culture experiments. […] About 5 μl glycerol stock was initially inoculated to 5 ml of GAM for the primary culture of these strains. […] The experiment was set up on 300 μl flat-bottomed 96-well microtiter plates. Reading was taken every interval of 8 h at 600 nm on a spectrophotometer.

The subject of another assay is B. producta ΔSBP. In words: Growth of B. producta ΔSBP mutant on barley β-glucan. It is filed as cell-based, Blautia producta. The following applies: minimal medium containing 1% barley β-glucan. How it is done: The pBS423-ΔrepA- Δsbp was constructed by inserting 905 bp 5' and 1151 bp 3' flanking regions but lacking 1.2 kb core region of BpSBPMLG. It was inserted between Pst1 sites of the vector. GenScript Biotech (Singapore) PTE LTD carried out synthesis of the 2.2 kb flanking region and insertion into pBS423-ΔrepA. Competent cells of B. producta were prepared after inoculating 1 % primary culture into 300 ml GAM containing glucose (0.2%), sucrose (0.5 M), and glycine (1%). It was incubated until A600 reached 0.5-0.7 at 37 °C under anaerobic conditions. Afterward, cultures were transferred into 50 ml centrifuge tubes and centrifuged at 3000 × g for 20 min. The supernatant was discarded, and pellets were washed three times with washing solution (0.5 M sucrose and 10% glycerol) and stored at -80°C in aliquots of 50 µl.
The first cross-over event for knocking out was achieved by integrating 0.2 to 1 µg pBS423-ΔrepA- Δsbp in 50 µl competent cells of B. producta through electroporation using a condition of 25 µF, 2.0 kV, and 200 Ω. Gene Pulser Xcell (Bio-Rad Laboratories, Hercules, CA, USA) was used for this purpose. The treated cells were instantly mixed with 1 ml anaerobically pre-incubated GAM medium containing 0.2 % glucose, 0.5 M sucrose, 1 % glycine, 20 mM MgCl2.6H2O, and 2 mM CaCl2. […]

What is called kcat is the maximal rate divided by the concentration of active sites. Broadly, the Km is the concentration of substrate that gives half-maximal velocity. With Barley β-glucan, the kcat in the assay on BPGH16 mutant H398A is 0 s⁻¹. Besides, in the assay with BPGH16 mutant L358A, the kcat stood at 0 s⁻¹. In addition, in the assay on BPGH16 mutant R331A (R331A versus native enzyme), the “increase in Km” value was less than 2 fold and the reduction in kcat was approximately 1.3 fold. In the assay with BPGH16 mutant R331A (mutant R331A, DNS assay), the Km turned out to be 0.35 ± 0.05 mg/mL and the kcat amounted to 48 ± 0.8 s⁻¹. Further, the “growth of R. faecis” value with R. faecis is listed as “could not grow”. The “growth of B. producta ΔSBP compared to wild-type strain” value in the assay with B. producta ΔSBP is listed as “significant retardation in growth; also recorded: retarded growth”.
